In US20190307740A1, “COMPOSITIONS AND METHODS FOR TREATMENT RELATED TO FALL AND FALL FREQUENCY IN NEURODEGENERATIVE DISEASES” (Neurocea, LLC, priority 2016, published 2019):

Columns and labels:
[1] = test system: subjects with idiopathic PD with LIDs
Text: (§1) This post hoc analysis was inclusive of patients having baseline scores of […] for each of UPDRS Part II Question 13, Part II Question 14, and Part III Item 30.
(§2) The original UPDRS scale was used. […] In the UPDRS Part II, Question 13 is on Falling unrelated to Freezing. […] In Part II, Question 14 is on Freezing when Walking. This is a 5-point item and has two variables freezing and falls. […] Questions 13 and 14 were compared separately (Table 11).
(§3) For falls (UPDRS Part II, Question 13), a 5-point scale was used: 0: No falls to 4: falls more than once per day. For FOG and falls related to FOG (Question 14), a 5-point scale was used: 0: No FOG to 3 or 4: frequent falls from FOG. […] Analysis utilized Fisher's exact 2-tailed test. Improvement or worsening over baseline was calculated from the last treatment visit (Table 11).
(§4) This post hoc analysis was inclusive of patients having screening and/or baseline scores of greater than 0 for each of UPDRS Part II Question 13, Part II Question 14, and Part III Item 30.
Question 13—Falling Unrelated to Freezing • 0=None; • 1=Rare falling; • 2=Occasionally falls, less than once per day; • 3=Falls an average of once daily; • 4=Falls more than once daily.
(§5) For the purposes of this alternative post hoc analysis, only patients having a screening or baseline score of 2 or more, i.e., occasional freezing when walking or occasional falls, less than once per day, were considered to have experienced episodes of freezing and/or falling. Additionally, scores of patients with a screening or baseline score of 1 were set to 0, i.e., no freezing when walking or no falls. All patients were included in the analysis regardless of their status during the study, with the last observation carried forward.

[2] = oral capsules
[3] = test system: subjects with idiopathic PD with LIDs; remark: listed apart in the source
Text: as §1, §2, §4

[4] = test system: subjects with idiopathic PD with LIDs; remark: listed apart in the source
Text: as §1, §2, §3
Question 14—Freezing of Walking • 0=None; • 1=Rare freezing when walking, may have start hesitation; • 2=Occasional freezing when walking; • 3=Frequent freezing, occasionally falls from freezing; • 4=Frequent falls from freezing.
as §5

[5] = baseline to week 10, of 30 patients
[6] = baseline to week 10, of 30 patients, negative = improvement
[7] = of 30 patients, p=0.004 vs placebo

**Q.** For `CN1CCCC1c1cccnc1.O=C(O)C(O)C(O)C(=O)O` (stereo not drawn) [NP002, Nicotine Bitartrate], which “falling vs placebo at week 10” value ([1]; Question 13 score of 2 or greater at screening or baseline, Wilcoxon-Mann-Whitney p=0.3250) is on record?
**A.** directional signal towards reduced falling

**Q.** What about the “patients with either a reduction or absence of falls” value ([1]; active phase of the study) of the same compound?
**A.** ~87%

**Q.** And the “Falls (Question 13): patients with No Change” value [1, 5]?
**A.** 15

**Q.** And the “Falls (Question 13): patients with change +1” value [1, 5]?
**A.** 1

**Q.** And the “Falls (Question 13): patients with change +2” value [1, 5]?
**A.** 0

**Q.** And the “Falls (Question 13): patients with change +3” value [1, 5]?
**A.** 0

**Q.** And the “Falls (Question 13): patients with change −1” value [1, 5]?
**A.** 7

**Q.** What about the “Falls (Question 13): patients with change −2” value [1, 5] of the same compound?
**A.** 5

**Q.** What about the “Falls (Question 13): patients with change −3” value [1, 6] of the same compound?
**A.** 2

**Q.** And the “patients with no falls during the study” value ([1]; number of 30 patients)?
**A.** 12

**Q.** And the “patients with a reduction in falls” value [1, 7]?
**A.** 47%

**Q.** And the “improvement in falling vs placebo at week 10” value ([1]; score >0 at screening/baseline, Fisher's exact test p=0.057)?
**A.** statistically significant improvement in falling

**Q.** What about the “patients who reported fewer falls (UPDRS Part II, Question 13)” value ([1]; screening and/or baseline score >0, follow-up to visit 3 or 4) of the same compound?
**A.** 14 of 15

**Q.** And the “time until plasma concentration of nicotine returns close to baseline” value [2]?
**A.** approximately 6 hours

**Q.** What about the “Pull Test (Item 30): patients with No Change” value [3, 5] of the same compound?
**A.** 19

**Q.** And the “Pull Test (Item 30): patients with change +1” value [3, 5]?
**A.** 1

**Q.** And the “Pull Test (Item 30): patients with change +2” value [3, 5]?
**A.** 0

**Q.** And the “Pull Test (Item 30): patients with change +3” value [3, 5]?
**A.** 0

**Q.** What about the “Pull Test (Item 30): patients with change −1” value [3, 5] of the same compound?
**A.** 5

**Q.** What about the “Pull Test (Item 30): patients with change −2” value [3, 5] of the same compound?
**A.** 5

**Q.** And the “Pull Test (Item 30): patients with change −3” value [3, 6]?
**A.** 0

**Q.** And the “patients with improvement in postural stability (pull test)” value ([3]; patients with screening and/or baseline score >0, p=0.054 vs placebo)?
**A.** 9 of 24

**Q.** What about the “improvement in freezing vs placebo at week 10” value ([4]; Question 14 score of 2 or greater at screening or baseline, Cochran-Mantel-Haenszel p=0.0476) of the same compound?
**A.** statistically significant improvement in freezing

**Q.** What about the “patients with either a reduction or absence of FOG” value ([4]; active phase of the study) of the same compound?
**A.** ~73%

**Q.** What about the “FOG (Question 14): patients with No Change” value [4, 5] of the same compound?
**A.** 17

**Q.** What about the “FOG (Question 14): patients with change +1” value [4, 5] of the same compound?
**A.** 1

**Q.** What about the “FOG (Question 14): patients with change +2” value [4, 5] of the same compound?
**A.** 0

**Q.** What about the “FOG (Question 14): patients with change +3” value [4, 5] of the same compound?
**A.** 0

**Q.** And the “FOG (Question 14): patients with change −1” value [4, 5]?
**A.** 10

**Q.** And the “FOG (Question 14): patients with change −2” value [4, 5]?
**A.** 2

**Q.** And the “FOG (Question 14): patients with change −3” value [4, 6]?
**A.** 0

**Q.** And the “patients with no FOG during the study” value ([4]; number of 30 patients)?
**A.** 10

**Q.** And the “patients with a reduction in FOG” value [4, 7]?
**A.** 40%
